Key:
juvenile minipigs = assay: 13-week repeat-dose toxicity study, rectal administration; format: in vivo; details: 13 weeks, 5 doses per day, 550 to 13,750 mg/kg
Description: The aim of this study was to test the toxicity of repeated administrations of sodium phenylbutyrate (NaPB) by the intended human route in juvenile minipigs (13-week study, total dose divided into 5 doses per day). Minipig is a model of interest for studies of local tolerance due to similarities between properties of the skin of pigs of the one of humans.
A 13-week repeat-dose toxicity study was conducted in juvenile minipigs using the rectal administration route of sodium phenylbutyrate (NaPB). One group was treated […] at the pharmacological dose of NaPB. One group received oral NaPB (total dose divided into 5 doses per day) for comparison.
The study included safety pharmacology evaluation, toxicokinetic (TK) determination, as well as a four-week recovery period.
Earliest dosing was started at 7 days of age. Oral gavage (5 times daily at 3-4 hour intervals) and rectal administration (5 times daily at 3-4 hour intervals) were performed during 13 weeks. A recovery period of 28 days was performed.
The recovery animals were housed for additional 28 days after dosing. The piglets were weighed twice weekly throughout the study. Growth measurements were performed twice weekly. Ophthalmology, electrocardiography were done the last day of treatment. […] The parameters measured met standard guidelines. […]

[1] = after per os ingestion; cited from earlier work
[2] = tested on: patients with SMA type II; details: oral, 9 weeks, cited from earlier work
patients with SMA = details: oral, 500 mg/kg/day, intermittent regimen, 13 weeks, 107 patients; cited from earlier work
SMA = details: in vivo; cited from earlier work

| Structure (SMILES) | toxicity (juvenile minipigs) | half-life [1] [min] | scores on a motor scale ([2]; 500 mg/kg/day in five doses, 7 days on and 7 days off, 10 patients) | side effects ([2]; 500 mg/kg/day) | efficacy (patients with SMA) | tolerability (patients with SMA) | efficacy (SMA) |
| --- | --- | --- | --- | --- | --- | --- | --- |
| O=C([O-])CCCc1ccccc1.[Na+] [4-phenylbutyrate, sodium 4-phenylbutyrate] | No toxicity was observed | 46.2 | significant increase | no major side effect | not shown to be effective | well tolerated | – |
| CCCC(CCC)C(=O)O [Valproic acid, valproic acid] | – | – | – | – | – | – | do not seem to have given significant results |
| NC(=O)NO [hydroxyurea] | – | – | – | – | – | – | do not seem to have given significant results |
